The test addresses T1, ABCG2 (ATP-binding cassette super-family G member 2, BCRP) (Homo sapiens, UniProt Q9UNQ0).
T1 construct: ABCG2 in insect cell membrane vesicles
T1 sequence (Q9UNQ0 1-655): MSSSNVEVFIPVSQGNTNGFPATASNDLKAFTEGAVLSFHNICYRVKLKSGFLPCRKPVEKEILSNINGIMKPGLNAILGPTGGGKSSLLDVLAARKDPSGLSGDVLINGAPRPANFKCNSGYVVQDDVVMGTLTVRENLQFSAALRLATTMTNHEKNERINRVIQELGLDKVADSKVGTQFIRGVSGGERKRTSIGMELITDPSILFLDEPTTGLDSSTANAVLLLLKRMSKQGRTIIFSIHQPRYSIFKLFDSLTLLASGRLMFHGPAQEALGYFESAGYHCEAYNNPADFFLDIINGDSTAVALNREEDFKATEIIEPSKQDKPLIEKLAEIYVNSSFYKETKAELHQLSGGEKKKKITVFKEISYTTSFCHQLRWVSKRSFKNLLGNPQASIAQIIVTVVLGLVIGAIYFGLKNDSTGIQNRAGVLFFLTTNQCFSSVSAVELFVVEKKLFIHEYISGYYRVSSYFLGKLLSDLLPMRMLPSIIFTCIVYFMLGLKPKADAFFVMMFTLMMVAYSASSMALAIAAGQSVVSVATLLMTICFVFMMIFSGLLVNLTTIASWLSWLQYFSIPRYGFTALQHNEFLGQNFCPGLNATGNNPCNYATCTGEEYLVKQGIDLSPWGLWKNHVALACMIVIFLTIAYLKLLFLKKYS
Kind of test: biochemical.

With `O=C1NC(=O)[C@@H](c2cn3c4c(cccc24)CCC3)[C@@H]1c1c[nH]c2ccccc12` [Tivantinib], the EC50 stood at 6.76 µM.

Values taken from article PMC7017082, “Tivantinib, A c-Met Inhibitor in Clinical Trials, Is Susceptible to ABCG2-Mediated Drug Resistance” (Cancers, 2020).
